Assay [1] deals with MDA-MB-231. The assay can be described thus: Antiproliferative activity against human MDA-MB-231 cells assessed as reduction in cell viability incubated for 72 hrs by CyQuant assay. As to conditions: MDA-MB-231, 72 h. The assay is classed as functional, cell-based.
The subject of assay [2] is MDA-MB-468. The assay can be described thus: Antiproliferative activity against human MDA-MB-468 cells harbouring STAT3 assessed as reduction in cell viability incubated for 72 hrs by CyQuant assay. The assay is classed as functional, cell-based. As to conditions: MDA-MB-468, 72 h.
Assay [3] has as its system MCF7. The assay can be described thus: Antiproliferative activity against human MCF7 cells assessed as reduction in cell viability incubated for 72 hrs by CyQuant assay. The class given is functional, cell-based. As to conditions: MCF7, 72 h.
Assay [4] relates to MCF-10A. The assay can be described thus: Cytotoxicity against human MCF-10A cells assessed as reduction in cell viability incubated for 72 hrs by CyQuant assay. The assay is classed as cell-based.
The test system of assay [5] is NIH3T3. The assay can be described thus: Inhibition of oligonucleotide [32P]-labelled 5'-AGATTTCTAGGAATTCAA probe binding to STAT5 homodimer in mouse NIH3T3 nuclear extract at 10 uM preincubated for 30 mins followed by MGFe probe addition by EMSA analysis.
The target in assay [6] is T1, Signal transducer and activator of transcription 1 (Mus musculus) (UniProt P42225).
T1 sequence (whole entry): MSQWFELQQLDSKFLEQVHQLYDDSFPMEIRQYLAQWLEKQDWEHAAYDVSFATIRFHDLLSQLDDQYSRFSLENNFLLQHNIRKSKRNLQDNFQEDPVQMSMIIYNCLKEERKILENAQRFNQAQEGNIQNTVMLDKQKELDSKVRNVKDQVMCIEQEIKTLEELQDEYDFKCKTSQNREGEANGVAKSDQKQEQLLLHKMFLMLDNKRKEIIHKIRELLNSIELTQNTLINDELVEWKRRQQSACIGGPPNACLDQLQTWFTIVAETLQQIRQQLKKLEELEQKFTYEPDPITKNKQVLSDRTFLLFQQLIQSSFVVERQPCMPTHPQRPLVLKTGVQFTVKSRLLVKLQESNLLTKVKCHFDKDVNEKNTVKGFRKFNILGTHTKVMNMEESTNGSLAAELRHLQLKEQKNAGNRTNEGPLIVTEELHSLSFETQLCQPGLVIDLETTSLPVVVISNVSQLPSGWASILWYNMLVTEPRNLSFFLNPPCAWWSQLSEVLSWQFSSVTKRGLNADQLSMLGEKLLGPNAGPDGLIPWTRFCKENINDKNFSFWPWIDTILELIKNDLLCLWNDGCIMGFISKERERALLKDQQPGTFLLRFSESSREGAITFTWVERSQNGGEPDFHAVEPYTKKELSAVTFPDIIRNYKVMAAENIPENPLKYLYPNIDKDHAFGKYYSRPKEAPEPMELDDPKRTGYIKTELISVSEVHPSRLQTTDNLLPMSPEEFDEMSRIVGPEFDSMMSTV
The assay can be described thus: Inhibition of oligonucleotide [32P]-labelled 5'-AGCITCATTTCCCGTAAATCCCTA probe binding to STAT1 homodimer in mouse NIH3T3 nuclear extract at 10 uM preincubated for 30 mins followed by hSIE probe addition by EMSA analysis. (In general: In EMSA bound probe runs differently from free probe, usually more slowly.)

For assay [7], the target named is Signal transducer and activator of transcription 3 (Mus musculus, UniProt P42227). The assay can be described thus: Inhibition of oligonucleotide [32P]-labelled 5'-AGCITCATTTCCCGTAAATCCCTA probe binding to STAT3 SH2 domain in mouse NIH3T3/v-Src nuclear extract preincubated for 30 mins followed by hSIE probe addition by EMSA analysis. The class given is subcellular, Nucleus.

The source made the active and inactive calls. The rule behind the calls is not given here.

Sequence of Signal transducer and activator of transcription 3 (P42227 whole entry, the tested form may be a part): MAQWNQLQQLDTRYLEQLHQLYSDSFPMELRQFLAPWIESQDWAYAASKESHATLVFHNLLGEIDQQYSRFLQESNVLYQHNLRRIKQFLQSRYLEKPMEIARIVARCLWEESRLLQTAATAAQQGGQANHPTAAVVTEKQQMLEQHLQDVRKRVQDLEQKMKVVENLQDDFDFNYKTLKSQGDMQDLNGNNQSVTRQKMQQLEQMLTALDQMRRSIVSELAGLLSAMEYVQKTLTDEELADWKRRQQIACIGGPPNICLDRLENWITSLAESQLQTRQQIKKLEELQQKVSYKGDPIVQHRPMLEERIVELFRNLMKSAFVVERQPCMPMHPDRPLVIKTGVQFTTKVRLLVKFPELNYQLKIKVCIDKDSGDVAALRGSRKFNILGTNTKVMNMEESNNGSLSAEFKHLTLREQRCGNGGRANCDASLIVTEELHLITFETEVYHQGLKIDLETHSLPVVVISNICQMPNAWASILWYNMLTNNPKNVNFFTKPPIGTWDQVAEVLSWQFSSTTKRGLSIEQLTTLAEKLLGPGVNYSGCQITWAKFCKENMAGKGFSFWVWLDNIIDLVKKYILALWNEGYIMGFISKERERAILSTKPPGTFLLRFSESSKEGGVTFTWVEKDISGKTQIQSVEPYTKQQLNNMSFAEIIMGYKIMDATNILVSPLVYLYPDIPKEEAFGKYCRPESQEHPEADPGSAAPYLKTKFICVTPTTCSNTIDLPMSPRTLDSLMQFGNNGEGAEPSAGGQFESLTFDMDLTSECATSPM

As a reminder, the EC50 is the concentration that produces a half-maximal response. In the case of `O=C([C@H]1CCN1S(=O)(=O)c1c(F)c(F)c(F)c(F)c1F)N(Cc1ccc(C2CCCCC2)cn1)c1cc2[nH]ncc2cc1F`, the concentration giving a half-maximal response (EC50) was 2.3 µM in assay [1], 3.2 µM in assay [2], 4.8 µM in assay [3] and 4.9 µM in assay [4].

As to `COC(=O)c1ccc(N(Cc2ccc(C3CCCCC3)cn2)C(=O)[C@H]2CCN2S(=O)(=O)c2c(F)c(F)c(F)c(F)c2F)cc1O`, the EC50 in assay [1] is 1.8 µM.

Take `O=C([C@H]1CCN1S(=O)(=O)c1c(F)c(F)c(F)c(F)c1F)N(Cc1cnc(C2CCCCC2)cn1)c1cc2[nH]ncc2cc1F`: the EC50 stood at 2 µM in assay [1], 2 µM in assay [2], 4.6 µM in assay [3] and 3.2 µM in assay [4].

For `O=C(NO)c1cc(F)c(N(Cc2ccc(C3CCOCC3)cc2)C(=O)[C@H]2CCN2S(=O)(=O)c2c(F)c(F)c(F)c(F)c2F)cc1O`, the EC50 in assay [1] was 5.1 µM.

In the case of `O=C(NO)c1ccc(N(Cc2ccc(C3CCCCC3)cn2)C(=O)[C@H]2CCN2S(=O)(=O)c2c(F)c(F)c(F)c(F)c2F)cc1O`, the 50% effective concentration (EC50) in assay [2] came out at 6.2 µM.

On to `CONC(=O)c1ccc(N(Cc2ccc(C3CCCCC3)cn2)C(=O)[C@H]2CCN2S(=O)(=O)c2c(F)c(F)c(F)c(F)c2F)cc1O`, for which the results for the concentration for a half-maximal effect (EC50) in assay [1] and in assay [2] were 6.7 µM and 3.9 µM, respectively.

With `NC(=O)c1ccc(N(Cc2ccc(C3CCCCC3)cn2)C(=O)[C@H]2CCN2S(=O)(=O)c2c(F)c(F)c(F)c(F)c2F)cc1O`, the EC50 in assay [1] stood at 2.9 µM; in assay [2], 2.6 µM; in assay [3], 4.6 µM; in assay [4], 7.2 µM.

With `O=C([C@H]1CCN1S(=O)(=O)c1c(F)c(F)c(F)c(F)c1F)N(Cc1cnc(C2CCCCC2)cn1)c1ccc2c(=O)[nH]cnc2c1`, in assay [1], the 50% effective concentration (EC50) was 4.2 µM.

Regarding `O=C([C@H]1CCN1S(=O)(=O)c1c(F)c(F)c(F)c(F)c1F)N(Cc1cnc(C2CCCCC2)cn1)c1ccc2c(=O)[nH]ncc2c1`, the EC50 in assay [1] came to 4.8 µM.

`O=C(NO)c1ccc(N(Cc2ccc(C3CCCCC3)cn2)C(=O)[C@H]2CCN2S(=O)(=O)c2c(F)c(F)c(F)c(F)c2F)c(F)c1`: the concentration giving a half-maximal response (EC50) is 5.8 µM in assay [1] and 4.2 µM in assay [2].

Turning to `O=C([C@H]1CCN1S(=O)(=O)c1c(F)c(F)c(F)c(F)c1F)N(Cc1ccc(C2CCCCC2)cc1)c1ccc2c(=O)[nH]ccc2c1`, the EC50 in assay [1] turned out to be 1.4 µM; in assay [2], 3.8 µM; in assay [3], 6.2 µM; in assay [4], 5.3 µM.

In the case of `O=C(O)c1ccc(N(Cc2ccc(C3CCOCC3)nc2)C(=O)[C@H]2CCN2S(=O)(=O)c2c(F)c(F)c(F)c(F)c2F)cc1O`, the inhibition entry in assay [5] and in assay [6] was “Active” throughout.

In the case of `O=C(NO)c1ccc(N(Cc2ccc(C3CCOCC3)cc2)C(=O)[C@H]2CCN2S(=O)(=O)c2c(F)c(F)c(F)c(F)c2F)cc1`, the EC50 is 4 µM in assay [1], 2.1 µM in assay [2], above 10 µM in assay [3] and 4.3 µM in assay [4].

As a reminder, the IC50 is the concentration needed to halve the response being measured. In turn, `COC(=O)c1ccc(N(Cc2ccc(C3CCCCC3)cc2)C(=O)[C@H]2CCN2S(=O)(=O)c2c(F)c(F)c(F)c(F)c2F)c(F)c1` returned a 50% inhibitory concentration (IC50) in assay [7] above 4 µM. The EC50 in assay [1] turned out to be 4.4 µM. The inhibition entry in assay [5] and in assay [6] was “Active” in each case.

As to `O=C([C@H]1CCN1S(=O)(=O)c1c(F)c(F)c(F)c(F)c1F)N(Cc1ccc(C2CCCCC2)cc1)c1cc2[nH]ncc2cc1F`, the EC50 in assay [1] came to 2.4 µM; in assay [3], 9.4 µM; in assay [4], 8.1 µM.

As to `O=C(O)c1ccc(N(Cc2ccc(C3CCCC3)cc2)C(=O)[C@H]2CCN2S(=O)(=O)c2c(F)c(F)c(F)c(F)c2F)cc1O`, the inhibition result in assay [5] and in assay [6] was “Active” in each case.

For the compound `O=C(NO)c1ccc(N(Cc2ccc(C3CCCCC3)cc2)C(=O)[C@H]2CCN2S(=O)(=O)c2c(F)c(F)c(F)c(F)c2F)c(F)c1`, the inhibition entry in assay [5] and in assay [6] was “Active” each time.

As for `O=C(NO)c1ccc(N(Cc2ccc(C3CCCCC3)cc2)C(=O)[C@H]2CCN2S(=O)(=O)c2c(F)c(F)c(F)c(F)c2F)cc1O`, the half-maximal effective concentration (EC50) in assay [1] was determined as 5.1 µM; in assay [2] it was 6.4 µM; in assay [3] it was 9.7 µM; in assay [4] it was 7.5 µM. The inhibition entry in assay [5] and in assay [6] was “Active” throughout.

With `O=C([C@H]1CCN1S(=O)(=O)c1c(F)c(F)c(F)c(F)c1F)N(Cc1ccc(C2CCCCC2)cc1)c1ccc2c(=O)[nH]ncc2c1`, the EC50 in assay [1] turned out to be 1.6 µM; in assay [2] it was 1.1 µM; in assay [3] it was 4.5 µM; in assay [4], 4.6 µM.

As to `O=C(NO)c1ccc(N(Cc2ccc(C3CCCCC3)cc2)C(=O)[C@H]2CCN2S(=O)(=O)c2c(F)c(F)c(F)c(F)c2F)cc1`, the concentration for a half-maximal effect (EC50) in assay [1] was 5 µM; in assay [3], 6.8 µM; in assay [4], 7.9 µM.

As for `O=C(O)c1ccc(N(Cc2ccc(C3CCCCC3)nc2)C(=O)[C@H]2CCN2S(=O)(=O)c2c(F)c(F)c(F)c(F)c2F)cc1O`, the inhibition result in assay [5] and in assay [6] was “Active” each time.

Turning to `Cn1cnc2cc(N(Cc3ccc(C4CCCCC4)cn3)C(=O)[C@H]3CCN3S(=O)(=O)c3c(F)c(F)c(F)c(F)c3F)ccc2c1=O`, the EC50 in assay [1] stood at 2.1 µM; in assay [2] it was 2.2 µM; in assay [3], 3.2 µM; in assay [4] it was 4.7 µM.

In turn, `O=C(O)c1coc(N(Cc2ccc(C3CCCCC3)cc2)C(=O)[C@H]2CCN2S(=O)(=O)c2c(F)c(F)c(F)c(F)c2F)n1` displayed a 50% inhibitory concentration (IC50) in assay [7] above 5 µM.

With `O=C1NCc2cc(N(Cc3ccc(C4CCCCC4)cn3)C(=O)[C@H]3CCN3S(=O)(=O)c3c(F)c(F)c(F)c(F)c3F)ccc21`, the EC50 in assay [1] was 2 µM.

As for `O=C1NCc2cc(N(Cc3ccc(C4CCCCC4)cn3)C(=O)[C@H]3CCN3S(=O)(=O)c3c(F)c(F)c(F)c(F)c3F)c(F)cc21`, the EC50 in assay [1] amounted to 2 µM.

As for `O=C(O)c1ccc(N(Cc2ccc(C3CCOCC3)cc2)C(=O)[C@H]2CCN2S(=O)(=O)c2c(F)c(F)c(F)c(F)c2F)cc1O`, the inhibition result in assay [5] and in assay [6] was “Active” each time.

For `COC(=O)c1ccc(N(Cc2ccc(C3CCCCC3)nc2)C(=O)[C@H]2CCN2S(=O)(=O)c2c(F)c(F)c(F)c(F)c2F)cc1O`, the EC50 in assay [1] was 2 µM.

Take `O=C([C@H]1CCN1S(=O)(=O)c1c(F)c(F)c(F)c(F)c1F)N(Cc1ccc(C2CCCCC2)cn1)c1ccc2c(=O)[nH]cnc2c1`: the EC50 in assay [1] came out at 3.3 µM; in assay [2] it was 1.5 µM; in assay [3], 3.6 µM; in assay [4], 4 µM.

As for `O=C([C@H]1CCN1S(=O)(=O)c1c(F)c(F)c(F)c(F)c1F)N(Cc1cnc(C2CCCCC2)cn1)c1ccc2nn[nH]c2c1`, the values for the concentration for a half-maximal effect (EC50) in assay [1] and in assay [2] were 2.1 µM and 2.3 µM, respectively.

On to `O=C(NO)c1ccc(N(Cc2cnc(C3CCCCC3)cn2)C(=O)[C@H]2CCN2S(=O)(=O)c2c(F)c(F)c(F)c(F)c2F)cc1O`, for which the EC50 in assay [1] was determined as 5.2 µM; in assay [2], 5.1 µM.

Regarding `O=C(O)c1cc(F)c(N(Cc2ccc(C3CCCCC3)cc2)C(=O)[C@H]2CCN2S(=O)(=O)c2c(F)c(F)c(F)c(F)c2F)cc1O`, the inhibition result in assay [5] and in assay [6] was “Active” in each case.

With `O=C([C@H]1CCN1S(=O)(=O)c1c(F)c(F)c(F)c(F)c1F)N(Cc1ccc(C2CCCCC2)cn1)c1ccc2nn[nH]c2c1`, the EC50 worked out at 6.6 µM in assay [1] and 5.1 µM in assay [2].

Compound `O=C(O)c1ccc(N(Cc2ccc(C3CCCCC3)cn2)C(=O)[C@H]2CCN2S(=O)(=O)c2c(F)c(F)c(F)c(F)c2F)cn1` returned an IC50 in assay [7] above 2 µM.

As to `O=C(NO)c1ccc(N(Cc2ccc(C3CCCC3)cc2)C(=O)[C@H]2CCN2S(=O)(=O)c2c(F)c(F)c(F)c(F)c2F)cc1`, the EC50 in assay [1] came to 3.1 µM; in assay [2], 1.8 µM; in assay [3] it was 7.2 µM; in assay [4], 7.3 µM.

`O=C([C@H]1CCN1S(=O)(=O)c1c(F)c(F)c(F)c(F)c1F)N(Cc1ccc(C2CCCCC2)cn1)c1ccc2c(=O)[nH]ccc2c1`: the 50% effective concentration (EC50) in assay [1] was determined as 1.2 µM; in assay [2], 2 µM; in assay [3], 2.2 µM; in assay [4], 2.7 µM.

In the case of `Cn1ccc2cc(N(Cc3ccc(C4CCCCC4)cn3)C(=O)[C@H]3CCN3S(=O)(=O)c3c(F)c(F)c(F)c(F)c3F)ccc2c1=O`, the figures for the EC50 in assay [1], in assay [3] and in assay [4] were 2.3 µM, 2.8 µM and 4.4 µM, respectively.

Source of the values: ChEMBL document CHEMBL4706639, “Discovery of Novel Azetidine Amides as Potent Small-Molecule STAT3 Inhibitors” (J Med Chem, 2021).
